Source: PMC12421961, “PmeR, a TetR-like transcriptional regulator, is involved in both auxin signaling and virulence in the plant pathogen Pseudomonas syringae strain PtoDC3000” (mBio, 2025)

Legend:
PmeR = molecular target: T1, PmeR (Pseudomonas syringae group genomosp. 3, UniProt Q87X86); experiment: EMSA, release of PmeR from […]-labelled operator DNA; type: binding; settings: 6.25 nM PmeR, 1.5 nM pmeR-mexA intergenic DNA probe, pH 8.0, 25 °C; lowest complete-release concentration in a dilution series, not a Kd or IC50
T1 construct: gene PSPTO_4302; full-length coding region (672 bp), N-terminal His tag, pET-28a, E. coli BL21(DE3), codon-optimized; nickel column; tag removal not mentioned

[1] = molecular target: T2, PmeR (TetR-like regulator) (Pseudomonas syringae strain PtoDC3000) (UniProt Q87X86); experiment: competition; settings: 25 mM Tris-acetate pH 8.0, 8 mM Mg-acetate, 10 mM KCl, 1 mM DTT, 460 uM HCl ([…]
T2 sequence: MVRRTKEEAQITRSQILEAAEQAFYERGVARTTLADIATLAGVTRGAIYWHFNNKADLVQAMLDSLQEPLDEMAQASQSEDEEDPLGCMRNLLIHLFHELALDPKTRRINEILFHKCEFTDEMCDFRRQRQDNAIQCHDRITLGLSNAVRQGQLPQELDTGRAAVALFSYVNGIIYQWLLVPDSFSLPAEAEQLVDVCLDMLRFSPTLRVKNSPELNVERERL

Molecule: N[C@@H](CCCCNC(=O)Cc1c[nH]c2ccccc12)C(=O)O [IAA-Lys]
- concentration sufficient for complete shift to unbound DNA (PmeR): 750 µM

Molecule: CGGAATTCGGTGCGACGAACCATGGCAATAAGACCTCAAAAGATTCACCTCATGCGTGCATCTGGTGCATGCCTTGAGGTATGACCGGGCGGCATTTGTCTCGCCTTGTCCCGAACTGGCATTCAGCACCTTGAATAGTGGCCGAATGCGCAAAGCGGGTGTTTACAAACAACCGCGAATGTAAGTATATTCCTTAGCATGCTACTTATCTAGCCGAAATATTTTTTAACACTTCAACGTACTGTTGAGAAAACAGGCTCCTGCCCCGAGGATCTTCGGTACCCC (double strand) [pmeR-mexA intergenic region probe]
- binding [1]: binds
